Test results: patent publication US6949250B2, “Selective algaecides for control of cyanochloronta” (The United States of America as represented by the …, priority 2002, dated 2005)

Key:
[1] = tested on: 2-methylisoborneol; experiment: DNA1-19-1 second and third pond efficacy studies: MIB levels; assay type: in vivo; settings: second and third efficacy study; 1, 0.3, and 0.1 μM
Description: (§1) The method described by Schrader et al. (2000) was used to determine the potential for using the anthraquinone derivatives as selective algicides in catfish aquaculture ponds. All catfish ponds used in efficacy tests were maintained using commercial pond management practices and were located at the Thad Cochran Pond Facility, Mississippi State University, Stoneville, Miss. Anthraquinone analogs were dissolved in deionized water before application to water within the limnocorrals.
(§2) Limnocorrals in which test compound was applied to the enclosed water were randomly selected, and control (no test compound applied) limnocorrals were included in each efficacy study. For each sampling, two water samples (250 mL) were obtained from within each limnocorral (approximately 6-8 cm below the water surface and from opposite sides of each limnocorral) and mixed together in a 500 mL sample bottle to provide a representative sample of the water contained within the limnocorral.
(§3) In the second study with DNA1-19-1, twelve limnocorrals that were the same size as those used in the first study were placed in another 4-ha earthen catfish pond. […] The sampling regime and procedures used in the first study were followed in a similar manner, except that water samples were obtained before DNA1-19-1 application, 16 hours after application, and at days 2, 4, and 7. […]

[2] = tested on: chlorophyll a; experiment: DNA1-19-1 second and third pond efficacy studies: chlorophyll a; assay type: in vivo; settings: second and third efficacy study; 1, 0.3, and 0.1 μM
Description: as §1, §2, §3

[3] = tested on: diatoms; experiment: DNA2-59-1 third pond efficacy study: diatom abundance; assay type: in vivo; settings: 0.3 μM, from three days after application
Description: as §1, §2
(§4) For the third efficacy test with DNA2-59-1, twelve limnocorrals (2.44 m in diameter and 1.53 m high) were placed in a 4-ha earthen pond containing a bloom of O. perornata. […]

[4] = tested on: chlorophyll a; experiment: DNA2-59-1 first pond efficacy study: chlorophyll a; assay type: in vivo
Description: as §1
(§5) Limnocorrals in which test compound was applied to the enclosed water were randomly selected, and control (no test compound applied) limnocorrals were included in each efficacy study. […]
(§6) In the first study, application rates of 0.1 μM (37.7 μg/L), 0.3 μM ([…]), and 1.0 μM (377 μg/L) of DNA2-59-1 were tested using limnocorrals (three replicates per concentration) that were of the same type used for testing DNA1-19-1. […] Water samples were also analyzed to determine the persistence of DNA2-59-1 in the pond water, and this analysis was performed by using high-pressure liquid chromatography (HPLC) (method and results are described later).

[5] = tested on: Oscillatoria perornata; experiment: DNA2-59-1 third pond efficacy study: O. perornata abundance; assay type: in vivo; settings: 0.3 μM, within 24 hours after application
Description: as §1, §2, §4

[6] = DNA2-59-1 third efficacy study: dissipation rate and half-life in pond water (HPLC); assay type: physicochemical; settings: for DNA2-59-1 Levels in Pond Water: third study, 0.3 μM applied
Description: For the third efficacy test with DNA2-59-1, twelve limnocorrals (2.44 m in diameter and 1.53 m high) were placed in a 4-ha earthen pond containing a bloom of O. perornata. The same procedures, application rate (0.3 μM), and methods used in the second efficacy test of DNA2-59-1 were used except six limnocorrals were randomly selected to receive an application rate of 0.3 μM DNA2-59-1 while the other six limnocorrals were controls. Water samples were collected before application of DNA2-59-1, 20 minutes after application, and at days 1, 2, 3, 4, and 7. The same tests and methods used in the first efficacy testing of DNA2-59-1 were used.
Approximately 15 mL each of water samples from DNA2-59-1 efficacy testing that were designated for HPLC analysis were placed in scintillation vials and held in a freezer. Water samples were later melted at room temperature, and 5 mL of each sample was then filtered through a nylon membrane filter (13 mm diameter and 0.45 μm; Whatman International, Maidstone, England) using a 5 mL syringe (Hamilton Company, Reno, Nev.) and a 13 mm syringe filter holder (Fisher Scientific Company, Pittsburgh, Pa.). Filtrate (1 mL) was placed in 2 mL vials and capped using teflon/rubber septum caps (National Scientific Company, Jeddah, Saudia Arabia). The filter paper was removed and placed in a scintillation vial to which 2 mL of HPLC grade methanol (Fisher Scientific, Fair Lawn, N.J.) was added and then sonicated for 5 minutes. The methanol solution was then filtered using a nylon membrane acrodisc (25 mm and 0.45 μm; Pall Life Sciences, Ann Arbor, Mich.), and the methanol filtrate was placed in separate 2 mL vials.
Filtrate samples were analyzed using a Waters 2690 Alliance HPLC containing a 996 PDA detector and a XTerra RP 18 column (150 mm×4.6 mm, 5 μm particle size; Waters Corporation, Milford, Mass.). The mobile phase consisted of 25 mM sodium dihydrogenphosphate in 0.1% phosphoric acid (A) and acetonitrile (B). The gradient was from 80A/20B in 15 minutes to 40A/60B. After each run, a 5 minute wash with methanol was performed, followed by equilibrating the column for 10 minutes with 80A/20B. The temperature was set at 40° C., the flow rate was 1 mL/minute, the detection wavelength 256 nm, and the sample injection volume was 10 μL. All solvents used were HPLC grade (Fisher Scientific, Fair Lawn, N.J.).
Means and standard deviations of data were determined and graphed. The graphs were used to help determine the half-life of DNA2-59-1 in the pond water. Because of the short duration of the first efficacy study, the half-life of DNA2-59-1 in the pond water could not be determined.

[7] = tested on: 2-methylisoborneol; experiment: DNA2-59-1 first pond efficacy study: MIB levels; assay type: in vivo; settings: 0.3 and 1 μM
Description: as §1, §5, §6

Compound	2-methylisoborneol levels compared to controls (result in words) [1]	chlorophyll a levels compared to controls (result in words) [2]	Numbers of diatoms vs control limnocorrals (result in words) [3]	Chlorophyll a levels significantly reduced compared to controls (result in words) ([4]; 0.1 μM)	chlorophyll a levels compared to controls (result in words) ([4]; 1 and 0.3 μM)	Numbers of O. perornata (result in words) [5]	half-life at 0.3 μM ([6]; pond water in limnocorrals (earthen catfish pond), third efficacy study)	DNA2-59-1 Levels in Pond Water ([6]; 0 hours)	DNA2-59-1 Levels in Pond Water ([6]; 24 hours)	DNA2-59-1 Levels in Pond Water ([6]; 48 hours)	DNA2-59-1 Levels in Pond Water ([6]; 72 hours)	DNA2-59-1 Levels in Pond Water ([6]; 96 hours)	decrease of MIB levels compared to controls and 0.1 μM (result in words) [7]
CCN(CC)CCCC(C)NCc1ccc2c(c1)C(=O)c1ccccc1C2=O.O=P(O)(O)O.O=P(O)(O)O (stereo not shown) [DNA1-19-1, 2-[methylamino-N-(1′-methyl-4′-N,N-diethylaminobutyl)]-9,10-anthraquinone diphosphate]	lack of reduction	lack of reduction	–	–	–	–	–	–	–	–	–	–	–
CC(C)NCc1ccc2c(c1)C(=O)c1ccccc1C2=O [DNA2-59-1, 2-[methylamino-N-(1′-methylethyl)]-9,10-anthraquinone monophosphate]	–	–	significantly higher	not	significantly reduced	significantly reduced	19 h	90.6 ± 7.9 µg/L	31.5 ± 4.4 µg/L	9.2 ± 3.2 µg/L	2.2 ± 0.5 µg/L	0 µg/L	to a greater degree and significantly more
